Experiment: Singlet oxygen (1O2) generation, DPBF scavenger under 635 nm laser
Conditions: 50 μg in 1.0 ml NMP, DPBF 10 μM, 635 nm laser 0.18 W/cm^2, absorbance at 415 nm
Method: Singlet Oxygen (^1O2) Generation. In a typical experiment, 50 μg of the monomer or Corrole-COF materials was suspended in 1 mL of N-methylpyrrolidone (NMP) (equilibrated with air at RT) containing 10 μM of singlet oxygen sensor 1,3-diphenylisobenzofuran (DPBF). The mixture solutions were irradiated under a 635 nm laser (0.18 W cm^−2). The characteristic UV-Vis absorption spectra of the DPBF were measured at 415 nm to determine the generation of ^1O2 every 1 min, in which the UV-Vis absorption spectra of samples were collected using a UV-1800 spectrophotometer (Shimadzu, Japan) with a 0.3 cm quartz cuvette at room temperature.
TPAPC-COF was evaluated for its ability to generate ^1O2 (FIGS. 8A and 7B). The photo-generating ^1O2 ability of TPAPC-COF under a 635 nm laser (0.18 W/cm^2) irradiation was investigated by using 1,3-diphenylisobenzofuran (DPBF) as a scavenger, and the process was monitored by time-dependent electronic absorption spectroscopy.

Question: For Nc1ccc(-c2c3nc(c4ccc([nH]4)c(-c4ccc(N)cc4)c4ccc([nH]4)c(-c4ccc(N)cc4)c4ccc2[nH]4)C=C3)cc1 [H3TPAPC, 5,10,15-tris(p-aminophenyl)corrole], which “degradation efficiency (conversion) of DPBF” value is on record?
Answer: 56%

Source: patent US11629160B2, “Corrole-based frameworks and methods of use thereof” (University of South Florida, priority 2019, dated 2023)
